Assay results taken from patent US11584800B2, “Method of treating cancer comprising administration of anti-HER2 antibody-drug conjugate” (DAIICHI SANKYO COMPANY, LIMITED, priority 2014, dated 2023).

What was measured:
[1] = Self-degradation of aminal structure of released drug derivative; format: physicochemical
[2] = tested on: colorectal cancer CTG-0401 tumor low or moderately expressing HER2; experiment: Antitumor test (8), patient-derived colorectal cancer CTG-0401 in nude mice; format: in vivo, nude mouse; conditions: 10 mg/kg intravenously on Day 0; HER2 score 1+ or 2+; FIG. 10
Description: (§1) Assay and calculation expression: The major axis and minor axis of tumor were measured twice a week by using an electronic digital caliper, and the tumor volume (mm^3) was calculated. The calculation expression is as shown below.

[3] = tested on: breast cancer ST910 tumor low expressing HER2; experiment: Antitumor test (7), patient-derived breast cancer ST910 in nude mice; format: in vivo, nude mouse; conditions: 10 mg/kg intravenously on Day 0; HER2 score 1+; FIG. 9
Description: as §1

[4] = tested on: Human breast cancer line JIMT-1 cells; experiment: Antitumor test (3), JIMT-1 subcutaneous transplant in nude mice; format: in vivo, nude mouse; conditions: 10 mg/kg intravenously on Days 12 and 19; FIG. 5
Description: (§2) Assay and calculation expression: In all studies, the major axis and minor axis of a tumor were measured twice a week by using an electronic digital caliper (CD-15CX, Mitutoyo Corp.), and the tumor volume (mm^3) was calculated. The calculation expression is as shown below. Tumor volume(mm^3)=½×Major axis (mm)×[Minor axis (mm)]^2
(§3) All of the antibody-drug conjugates and the antibody were diluted with physiological saline (Otsuka Pharmaceutical Factory, Inc.) and used at a volume of 10 mL/kg for intravenous administration to the tail vein of each mouse.
Human breast cancer line JIMT-1 cells purchased from DSMZ (Deutsche Sammlung von Mikroorganismen und Zellkulturen GmbH) were suspended in physiological saline, and 3×10^6 cells were subcutaneously transplanted to the right side of the body of each female nude mouse (Day 0), and the mice were randomly grouped on Day 12. […] A physiological saline administration group was established as a control group.

[5] = tested on: Human pancreatic cancer line Capan-1 cells weakly expressing HER2; experiment: Antitumor test (4), Capan-1 solid tumor in nude mice; format: in vivo, nude mouse; conditions: 10 mg/kg intravenously on Day 20; tumor with low HER2 expression; FIG. 6
Description: as §2, §3
Human pancreatic cancer line Capan-1 cells (ATCC) weakly expressing HER2 were suspended in physiological saline, and 4×10^7 cells were subcutaneously transplanted to the right side of the body of each female nude mouse to generate Capan-1 solid tumor. Thereafter, this solid tumor was maintained at several passages by transplantation to female nude mice and used in this test. […]

[6] = tested on: Human ovarian cancer line SK-OV-3 cells highly expressing HER2; experiment: Antitumor test (12), SK-OV-3 solid tumor in nude mice; format: in vivo, nude mouse; conditions: 10 mg/kg intravenously on Day 0, FIG. 14
Description: as §2, §3
Human ovarian cancer line SK-OV-3 cells highly expressing HER2 purchased from ATCC were suspended in physiological saline, and 4×10^7 cells were subcutaneously transplanted to the right side of the body of each female nude mouse to prepare SK-OV-3 solid tumor. Thereafter, this solid tumor was maintained at several passages by transplantation to female nude mice and used in this test. […]

[7] = tested on: bile duct cancer CTG-0927 tumor highly expressing HER2; experiment: Antitumor test (10), patient-derived bile duct cancer CTG-0927 in nude mice; format: in vivo, nude mouse; conditions: 10 mg/kg intravenously on Day 0; HER2 score 3+; FIG. 12
Description: as §1

[8] = tested on: breast cancer ST225 tumor moderately expressing HER2; experiment: Antitumor test (6), patient-derived breast cancer ST225 in nude mice; format: in vivo, nude mouse; conditions: 10 mg/kg intravenously on Day 0; HER2 score 2+; FIG. 8
Description: as §1

[9] = tested on: esophageal cancer CTG-0137 tumor highly expressing HER2; experiment: Antitumor test (11), patient-derived esophageal cancer CTG-0137 in nude mice; format: in vivo, nude mouse; conditions: 10 mg/kg intravenously on Day 0; HER2 score 3+; FIG. 13
Description: as §1

[10] = tested on: Human gastric cancer line NCI-N87 cells; experiment: Antitumor test (2), NCI-N87 subcutaneous transplant in nude mice; format: in vivo, nude mouse; conditions: 10 mg/kg intravenously on Day 7; FIG. 4
Description: Mouse: 5- to 6-week-old female nude mice (Charles River Laboratories Japan, Inc.) were acclimatized for 4 to 7 days under SPF conditions before use in the experiment. The mice were fed with sterilized solid feed (FR-2, Funabashi Farms Co., Ltd) and given sterilized tap water (prepared by the addition of 5 to 15 ppm sodium hypochlorite solution). Assay and calculation expression: In all studies, the major axis and minor axis of a tumor were measured twice a week by using an electronic digital caliper ([…] Corp.), and the tumor volume (mm^3) was calculated. The calculation expression is as shown below. […] Human gastric cancer line NCI-N87 cells purchased from ATCC (American Type Culture Collection) were suspended in physiological saline, and 1×10^7 cells were subcutaneously transplanted to the right side of the body of each female nude mouse (Day 0), and the mice were randomly grouped on Day 7. […] An untreated group was established as a control group.

[11] = tested on: non-small cell lung cancer CTG-0860 tumor moderately expressing HER2; experiment: Antitumor test (9), patient-derived non-small cell lung cancer CTG-0860 in nude mice; format: in vivo, nude mouse; conditions: 10 mg/kg intravenously on Day 0; HER2 score 2+; FIG. 11
Description: as §1

Row | Compound | stability of the aminal structure; releases HO—CH2—C(═O)—(NH-DX) [1] | growth of the colorectal cancer CTG-0401 tumor (tumor volume) [2] | growth of the breast cancer ST910 tumor (tumor volume) [3] | growth of the JIMT-1 tumor (tumor volume) [4] | growth of the Capan-1 tumor (tumor volume) [5] | growth of the SK-OV-3 tumor (tumor volume) [6] | growth of the bile duct cancer CTG-0927 tumor (tumor volume) [7] | growth of the breast cancer ST225 tumor (tumor volume) [8] | growth of the esophageal cancer CTG-0137 tumor (tumor volume) [9] | antitumor effect (tumor volume), NCI-N87 [10] | growth of the non-small cell lung cancer CTG-0860 tumor (tumor volume) [11]
1 | CC[C@@]1(O)C(=O)OCc2c1cc1n(c2=O)Cc2c-1nc1cc(F)c(C)c3c1c2[C@@H](NC(=O)COCN)CC3 [NH2—CH2—O—CH2—C(═O)—(NH-DX)] | undergoes a self-degradation |  |  |  |  |  |  |  |  |  | 
2 | trastuzumab emtansine |  | did not inhibit the growth | did not inhibit the growth | did not inhibit the growth of the JIMT-1 tumor | did not inhibit the growth of the Capan-1 tumor | remarkably inhibited the growth of the tumor | inhibited the growth of the tumor | remarkably inhibited the growth of the tumor | remarkably inhibited the growth of the tumor | tumor regression | did not inhibit the growth
